According to publication PMC10714400, “Antimicrobial Peptide–Peptoid Hybrids with and without Membrane Disruption” (ACS Infectious Diseases, 2023):
Where two headings read alike, the source gives them in different places.

Columns and labels:
[1] = tested on: A. baumannii ATCC19606
Procedure, shortened: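 MTT added (20–30 min, room temperature); MIC read by eye as lowest concentration inhibiting visible growth (yellow). Polymyxin B positive control from 16 μg/mL.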

[2] = tested on: K. pneumoniae OXA-48
Procedure, shortened: (§1)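 Using MTT as a visual viability dye, MICs were scored as the lowest concentration with no visible growth. Prior to staining, ~5 × 10^5 CFU per well grew in MH medium for ca. 18 h at 37 °C under static conditions.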

[3] = tested on: P. aeruginosa PAO1
Procedure, shortened: as §1

[4] = tested on: PA14 2P4 (pmrB)
Procedure, shortened: as §1

[5] = tested on: PA14 4.18 (pmrB)
Procedure, shortened: as §1

[6] = tested on: S. aureus COL (MRSA)
Procedure, shortened: as §1

[7] = tested on: ZEM-1A (clinical MDR P. aeruginosa isolate)
Procedure, shortened: as §1

[8] = tested on: ZEM9A (clinical MDR P. aeruginosa isolate)
Procedure, shortened: as §1

[9] = tested on: human red blood cells (hRBC); assay: Minimum hemolytic concentration (MHC); format: cell-based; settings: CSV
Description: We also measured minimal hemolysis concentrations (MHC) on human red blood cells by serial 2-fold dilution as an indication of toxicity against eukaryotic cells (Table 1).

[10] = tested on: B. cenocepacia
Procedure, shortened: as §1

[11] = tested on: P. aeruginosa PA14
Procedure, shortened: as §1

[12] = tested on: S. aureus Newman
Procedure, shortened: as §1

[13] = tested on: S. epidermis
Procedure, shortened: as §1

[14] = tested on: S. maltophilia
Procedure, shortened: as §1

[15] = tested on: HEK293 cells; assay: Cell viability assay by Alamar blue; settings: read-out: Toxicity on HEK293 cells; CSV
Procedure, shortened: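 Cells kept at 37 °C in 5% CO2 with 10% FBS plus penicillin/streptomycin, in RPMI-1640 for A549 and high-glucose DMEM for HEK293, then assessed for viability by Alamar blue; values are mean ± SD of three.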

[16] = diluted MH ([…] MH, pH 8.5) per Table 1 footnote b, 16–20 h at 37 °C
[17] = full MH, pH 7.4, 16–20 h at 37 °C

H-KKLLKLLKLLL-NH2 [ln65, reference compound]
4 ug/mL: MIC A. baumannii ATCC19606, […] MH at pH 7.4 ([1]; CSV, […] MH at pH 7.4) | MIC K. pneumoniae OXA-48, […] MH at pH 8.5 ([2]; CSV, […] MH at pH 8.5) | MIC P. aeruginosa PAO1, […] MH at pH 7.4 ([3]; CSV, […] MH at pH 7.4) | MIC P. aeruginosa PAO1, […] MH at pH 8.5 ([3]; CSV, […] MH at pH 8.5) | MIC S. aureus COL (MRSA), full MH at pH 7.4 ([6]; CSV, full MH at pH 7.4) | MIC P. aeruginosa ZEM-1A, […] MH at pH 8.5 ([7]; CSV, […] MH at pH 8.5) | MIC P. aeruginosa ZEM9A, […] MH at pH 8.5 ([8]; CSV, […] MH at pH 8.5) | MIC P. aeruginosa ZEM9A, full MH at pH 7.4 ([8]; CSV, full MH at pH 7.4) | MIC S. maltophilia, […] MH at pH 8.5 ([14]; CSV, […] MH at pH 8.5)
8 ug/mL: MIC A. baumannii ATCC19606, full MH at pH 8.5 ([1]; CSV, full MH at pH 8.5) | MIC S. aureus COL (MRSA), full MH at pH 8.5 ([6]; CSV, full MH at pH 8.5)
4 µg/mL: MIC A. baumannii ATCC19606 […] 7.4 ([1]; Table S2, […] MH, pH 7.4) | MIC A. baumannii ATCC19606 […] [1, 16] | MIC K. pneumoniae OXA-48 ([2]; Table S3, […] MH at pH 8.5) | MIC P. aeruginosa PAO1 […] 7.4 ([3]; Table S2, […] MH, pH 7.4) | MIC P. aeruginosa PAO1 […] 8.5 ([3]; Table S2, […] MH, pH 8.5) | MIC P. aeruginosa PAO1 […] [3, 16] | MIC S. aureus COL (MRSA) Full MH 7.4 ([6]; Table S2, full MH, pH 7.4) | MIC S. aureus COL (MRSA) Full [6, 17] | MIC P. aeruginosa ZEM-1A ([7]; Table S3, […] MH at pH 8.5) | MIC P. aeruginosa ZEM9A ([8]; Table S3, […] MH at pH 8.5) | MIC S. maltophilia ([14]; Table S3, […] MH at pH 8.5)
>32 ug/mL: MIC B. cenocepacia, full MH at pH 7.4 ([10]; CSV, full MH at pH 7.4)
2 to 4 µg/mL: MIC A. baumannii ATCC19606 Full MH 7.4 ([1]; Table S2, full MH, pH 7.4) | MIC A. baumannii ATCC19606 Full [1, 17] | MIC P. aeruginosa PAO1 Full MH 7.4 ([3]; Table S2, full MH, pH 7.4) | MIC P. aeruginosa PAO1 Full [3, 17] | MIC P. aeruginosa PA14 2P4 ([4]; Table S3, […] MH at pH 8.5) | MIC P. aeruginosa PA14 4.18 ([5]; Table S3, […] MH at pH 8.5) | MIC P. aeruginosa PA14 ([11]; MH pH 7.4, 16–20 h at 37 °C)
2 µg/mL: MIC A. baumannii ATCC19606 […] 8.5 ([1]; Table S2, […] MH, pH 8.5) | MIC K. pneumoniae OXA-48 ([2]; MH pH 7.4, 16–20 h at 37 °C) | MIC S. aureus COL (MRSA) […] 7.4 ([6]; Table S2, […] MH, pH 7.4) | MIC S. aureus COL (MRSA) […] 8.5 ([6]; Table S2, […] MH, pH 8.5) | MIC S. aureus COL (MRSA) […] [6, 16] | MIC ZEM-1A ([7]; MH pH 7.4, 16–20 h at 37 °C) | MIC P. aeruginosa PA14 ([11]; Table S3, […] MH at pH 8.5, 16-20 hours at 37 °C) | MIC S. aureus Newman ([12]; MH pH 7.4, 16–20 h at 37 °C) | MIC S. aureus Newman ([12]; Table S3, […] MH at pH 8.5) | MIC S. epidermis ([13]; MH pH 7.4, 16–20 h at 37 °C) | MIC S. maltophilia ([14]; MH pH 7.4, 16–20 h at 37 °C)
3 ug/mL: MIC A. baumannii ATCC19606, full MH at pH 7.4 ([1]; CSV, full MH at pH 7.4) | MIC P. aeruginosa PAO1, full MH at pH 7.4 ([3]; CSV, full MH at pH 7.4) | MIC P. aeruginosa PA14 2P4, […] MH at pH 8.5 ([4]; CSV, […] MH at pH 8.5) | MIC P. aeruginosa PA14 4.18, […] MH at pH 8.5 ([5]; CSV, […] MH at pH 8.5) | MIC P. aeruginosa PA14, full MH at pH 7.4 ([11]; CSV, full MH at pH 7.4)
16 ug/mL: MIC P. aeruginosa PAO1, full MH at pH 8.5 ([3]; CSV, full MH at pH 8.5)
1 µg/mL: MIC S. epidermis ([13]; Table S3, […] MH at pH 8.5)
8 µg/mL: MIC A. baumannii ATCC19606 Full MH 8.5 ([1]; Table S2, full MH, pH 8.5) | MIC S. aureus COL (MRSA) Full MH 8.5 ([6]; Table S2, full MH, pH 8.5)
16 µg/mL: MIC P. aeruginosa PAO1 Full MH 8.5 ([3]; Table S2, full MH, pH 8.5)
1 ug/mL: MIC S. epidermis, […] MH at pH 8.5 ([13]; CSV, […] MH at pH 8.5)
2 ug/mL: MIC A. baumannii ATCC19606, […] MH at pH 8.5 ([1]; CSV, […] MH at pH 8.5) | MIC K. pneumoniae OXA-48, full MH at pH 7.4 ([2]; CSV, full MH at pH 7.4) | MIC S. aureus COL (MRSA), […] MH at pH 7.4 ([6]; CSV, […] MH at pH 7.4) | MIC S. aureus COL (MRSA), […] MH at pH 8.5 ([6]; CSV, […] MH at pH 8.5) | MIC P. aeruginosa ZEM-1A, full MH at pH 7.4 ([7]; CSV, full MH at pH 7.4) | MIC P. aeruginosa PA14, […] MH at pH 8.5 ([11]; CSV, […] MH at pH 8.5) | MIC S. aureus Newman, […] MH at pH 8.5 ([12]; CSV, […] MH at pH 8.5) | MIC S. aureus Newman, full MH at pH 7.4 ([12]; CSV, full MH at pH 7.4) | MIC S. epidermis, full MH at pH 7.4 ([13]; CSV, full MH at pH 7.4) | MIC S. maltophilia, full MH at pH 7.4 ([14]; CSV, full MH at pH 7.4)
27 ± 6 µM: IC50 [15]
32 µg/mL: MIC PA14 2P4 (pmrB) ([4]; MH pH 7.4, 16–20 h at 37 °C) | MIC PA14 4.18 (pmrB) ([5]; MH pH 7.4, 16–20 h at 37 °C)
125 µg/mL: MHC [9]
32 ug/mL: MIC P. aeruginosa PA14 2P4, full MH at pH 7.4 ([4]; CSV, full MH at pH 7.4) | MIC P. aeruginosa PA14 4.18, full MH at pH 7.4 ([5]; CSV, full MH at pH 7.4)
>32 µg/mL: MIC B. cenocepacia ([10]; MH pH 7.4, 16–20 h at 37 °C)
